One experiment concerns promoter of yeast gene YOR382w. It is filed as cell-based, Saccharomyces cerevisiae W303.
Conditions: not given
The source says:
The inventors of the present application understood that the induction of certain yeast genes by toxic substances is caused by the activation of the promoters of the genes by the toxic substances. Thus, the inventors prepared a vector that comprised a polynucleotide sequence comprising the promoter of the yeast gene, which sequence is operably linked to a polynucleotide encoding a marker protein; and transformed yeast cells with the vector. […] The working examples hereinafter illustrate the preparation of such vectors, transformation of yeast cells by use of said vectors, and the detection of toxic substances by use of the transformed cells.
Promoter assay is a method for determining variations of the level of intracellular genes without destroying cells on the basis of the level of expressed marker genes instead of the expressed mRNA. The gene selected to detect a chemical substance is expressed in the absence of chemical substances, and thus a marker protein also occurs in the absence of chemical substances. In the method according to the present invention, the behavior of yeast genes on the addition of test materials is determined on the basis of the level of expressed marker protein so that the presence or the absence, and the kind of toxic chemical substances are predicted. Thus, it is desired that the production of marker proteins is lower in the absence of chemical substances, and the production of marker proteins is higher in the presence of chemical substances.
Type YEp shuttle vector pYES2 (pYES2, Cat no: V825-20, Invirtogen Corporation, USA), which can be replicated both in E. coli. and yeast was used as vector (R. W. Old, S. B. Primrose Principles of Gene Manipulation 5th Ed., BAIFUKAN CO., LTD, pp138-165, pp.234-263, 2000). The portion of vector pQBI 63 (Cat no.54-0082, Wako Pure Chemical Industries, Ltd.) corresponding to a marker protein GFP was used as the polynucleotide encoding GFP (SEQ ID No: 6). First, the GFP polynucleotide was inserted into the multiple cloning sites of pYES2 to give a vector. Thereafter, the GAL1 promoter of pYES2 was replaced with the polynucleotide comprising the promoter sequence of the intended yeast gene YOR382w (SEQ ID No: 3) to give an intended plasmid vector. Suitable restriction enzymes were selected, and the insertion of the polynucleotide comprising GFP and the promoter sequence was conducted.
Next, the yeast Saccharomyces cerevisiae W303 was transformed with the resultant plasmid vector according to the following procedures: • 1) Incubating the yeast Saccharomyces cerevisiae W303 in 200 ml of SD medium under shaking until OD 660 reaches 0.5; • 2) Suspending the collected cells in 5 ml of TE-buffer; • 3) Adding 250 μL of 2.5M lithium acetate; • 4) Dispending each 300 μl, adding 10 μl of above plasmid vector thereto, then incubating the suspensions at 30° C. for 30 minutes; • 5) Adding 700 μl of 50% PEG4000, and incubating the mixture under shaking at 30° C. for 60 minutes; • 6) Giving heat shock (42° C., 5 minutes), and then immediately cooling the mixture; • 7) Washing the mixture twice with 1M sorbitol; and • 8) Seeding it on agar plates made of minimum essential medium.
The cells of SC-YOR382W-pQBI as prepared in Example 4 were contacted to one of the following compounds. The yeast cells SC-YOR382W-pQBI were incubated at 25° C. in SD medium (Yeast nitrogen base without amino acids (Difco 0919-15)+glucose+amino acids (adenine, histidine, tryptophan)). One of toxic chemical substances as shown below was added to the cells at logarithmic growth phase, and then the cells were further incubated for two hours.
For the compound `Oc1cc(Cl)c(Cl)cc1Cl` [(6), 2,4,5-trichlorophenol], the “expression of GFP” value is “induced the expression of GFP”.

In the case of `CC(=O)O.Cc1nc(N)cc2[nH]c3ccccc3c12` [Trp-P-2 (acetate)], the Fluorescence entry was “++ (key: −: the number of the cells having a higher fluorescence than the control was under 1%; +: between 1% and 2%; ++: 2% or more)”; the “expression of GFP” value was “induced the expression of GFP”.

As to `O=S(=O)([O-])[O-].[Cu+2]` [copper sulfate (II)], the Fluorescence result was “− (key: −: the number of the cells having a higher fluorescence than the control was under 1%; +: between 1% and 2%; ++: 2% or more)”.

In the case of `[Cl][Ni][Cl]` [nickel (II) chloride], the Fluorescence result is “++ (key: −: the number of the cells having a higher fluorescence than the control was under 1%; +: between 1% and 2%; ++: 2% or more)”; the “expression of GFP” value is reported as “induced the expression of GFP”.

Staying with this experiment, now noted: SC-YOR382W-pQBI cells; summary of Table 12.
On to `O=[N+]([O-])c1cc[n+]([O-])c2ccccc12` [(5), 4-nitroquinolin-N-oxide], for which the “expression of GFP” value is “induced the expression of GFP”.

Turning to `C[S+](C)[O-]` [(15), dimethylsulfoxide], the “expression of GFP” value is on record as “induced the expression of GFP”.

Consider `CCOC(=O)CC(SP(=S)(OC)OC)C(=O)OCC` (stereo not shown) [malathon], for which the “expression of GFP” value is “induced the expression of GFP”.

Take `[K+].[K+].[O]=[Cr](=[O])([O-])[O][Cr](=[O])(=[O])[O-]` [potassium bichromate]: the “expression of GFP” value is reported as “induced the expression of GFP”.

For “manganese ethylenebis(dithiocarbamate) [(8)]”, the “expression of GFP” value is “induced the expression of GFP”.

The same experiment, now with this note: cells SC-YOR382W-pQBI, 2 hours incubation with the substance at the concentration printed in its row (column Concentrations); GFP fluorescence vs control without chemical.
As to `CCCCC(CC)COC(=O)c1ccccc1C(=O)OCC(CC)CCCC` (stereo not shown), the Fluorescence result is on record as “− (the number of the cells having a higher fluorescence than the control was under 1%)”.

With `CCN(CC)C(=O)SCc1ccc(Cl)cc1` [S-4-Chlorobenzyl-N,N-diethylthiocarbamate], the Fluorescence result is given as “− (the number of the cells having a higher fluorescence than the control was under 1%)”.

Turning to `CCOC(=O)CC(SP(=S)(OC)OC)C(=O)OCC` (stereo not shown) [malathon], the Fluorescence result is recorded as “++ (2% or more)”.

Take `[CH3][Hg][Cl]` [methylmercury chloride]: the Fluorescence entry is listed as “− (the number of the cells having a higher fluorescence than the control was under 1%)”.

In the case of `[K+].[K+].[O]=[Cr](=[O])([O-])[O][Cr](=[O])(=[O])[O-]` [potassium bichromate], the Fluorescence result is recorded as “++ (2% or more)”.

On to `[Cl][Sn]([c]1ccccc1)([c]1ccccc1)[c]1ccccc1` [triphenyltin chloride], for which the Fluorescence entry is “− (the number of the cells having a higher fluorescence than the control was under 1%)”.

With CdCl2 [(2)], the Fluorescence result is on record as “− (the number of the cells having a higher fluorescence than the control was under 1%)”.

Take HgCl2 [(3)]: the Fluorescence entry is “− (the number of the cells having a higher fluorescence than the control was under 1%)”.

Na2As [(1)]: the Fluorescence entry is “− (the number of the cells having a higher fluorescence than the control was under 1%)”.

Turning to “manganese ethylenebis(dithiocarbamate) [(8)]”, the Fluorescence entry is listed as “++ (2% or more)”.

On to γ-hexachlorocyclohexane [(7)], for which the Fluorescence entry was “− (the number of the cells having a higher fluorescence than the control was under 1%)”.

For the origin of these results see US20050112573A1, “Method of detecting toxic substance” (priority 2001, published 2005).
